The record followed here is ChEMBL document CHEMBL3120112, “Novel bronchodilatory quinazolines and quinoxalines: synthesis and biological evaluation” (Eur J Med Chem, 2014).

Structures are written as SMILES. Activity calls are given as the source filed them. The calls are words filed in the database; no cut-off is given here.

Series [1] in a line: Bronchodilatory activity in Wistar rat trachea assessed as inhibition of carbacol-induced contraction. The series is classed as functional. The note with it: read-out: ED50 (the source's name).
A further series relates to Trachea. The experiment in a line: Potency index, ratio of theophylline ED50 to compound ED50 for bronchodilatory activity in Wistar rat trachea. The series is classed as functional.
Series [2] can be described thus: Acute toxicity in ip dosed ICR mouse. The series is classed as organism-based. The note with it: in vivo.
The subject of series [3] is Mus musculus. Description: Toxicity in ICR mouse assessed as change in spleen weight at 36 mg/kg, po qd for 7 days measured every day for 7 days (0.143 +/- 0.033 g). The series is classed as organism-based. Set-up: dose 36 mg/kg, route oral. Conditions: in vivo, 168 h.
In series [4] the test system is Mus musculus. The experiment in a line: Toxicity in ICR mouse assessed as change in testicle weight at 36 mg/kg, po qd for 7 days measured every day for 7 days (0.118 +/- 0.004 g). The series is classed as organism-based. Set-up: dose 36 mg/kg, route oral. Conditions: in vivo, 168 h.
Series [5] relates to Mus musculus. Description: Toxicity in ICR mouse assessed as change in spleen weight at 18 mg/kg, po qd for 7 days measured every day for 7 days (0.143 +/- 0.033 g). Conditions: in vivo, 168 h. Set-up: dose 18 mg/kg, route oral. The series is classed as organism-based.
The subject of series [6] is Mus musculus. The experiment in a line: Toxicity in ICR mouse assessed as change in liver weight at 36 mg/kg, po qd for 7 days measured every day for 7 days (1.772 +/- 0.120 g). The series is classed as organism-based. The arrangement: dose 36 mg/kg, route oral. The note with it: in vivo, 168 h.
Series [7] relates to Mus musculus. The experiment in a line: Toxicity in ICR mouse assessed as change in kidney weight at 54 mg/kg, po qd for 7 days measured every day for 7 days (0.248 +/- 0.026 g). The arrangement: dose 54 mg/kg, route oral. The note with it: in vivo, 168 h. The series is classed as organism-based.
For series [8], the system named is Mus musculus. Description: Toxicity in ICR mouse assessed as change in kidney weight at 18 mg/kg, po qd for 7 days measured every day for 7 days (0.248 +/- 0.026 g). The series is classed as organism-based. Set-up: dose 18 mg/kg, route oral. The note with it: in vivo, 168 h.
Series [9] concerns Mus musculus. The experiment in a line: Toxicity in ICR mouse assessed as change in heart weight at 18 mg/kg, po qd for 7 days measured every day for 7 days (0.155 +/- 0.002 g). The note with it: in vivo, 168 h. The arrangement: dose 18 mg/kg, route oral. The series is classed as organism-based.
The test system of series [10] is Mus musculus. The experiment in a line: Toxicity in ICR mouse assessed as change in spleen weight at 54 mg/kg, po qd for 7 days measured every day for 7 days (0.143 +/- 0.033 g). The series is classed as organism-based. The arrangement: dose 54 mg/kg, route oral. Conditions: in vivo, 168 h.
The subject of series [11] is Mus musculus. The experiment in a line: Toxicity in ICR mouse assessed as change in kidney weight at 36 mg/kg, po qd for 7 days measured every day for 7 days (0.248 +/- 0.026 g). The series is classed as organism-based. The arrangement: dose 36 mg/kg, route oral. The note with it: in vivo, 168 h.
Series [12] relates to Mus musculus. Description: Toxicity in ICR mouse assessed as change in testicle weight at 54 mg/kg, po qd for 7 days measured every day for 7 days (0.118 +/- 0.004 g). The note with it: in vivo, 168 h. The series is classed as organism-based. The arrangement: dose 54 mg/kg, route oral.
The subject of series [13] is Mus musculus. The experiment in a line: Toxicity in ICR mouse assessed as change in heart weight at 54 mg/kg, po qd for 7 days measured every day for 7 days (0.155 +/- 0.002 g). The series is classed as organism-based. The arrangement: dose 54 mg/kg, route oral. Conditions: in vivo, 168 h.
For series [14], the system named is Mus musculus. The experiment in a line: Toxicity in ICR mouse assessed as change in heart weight at 36 mg/kg, po qd for 7 days measured every day for 7 days (0.155 +/- 0.002 g). The series is classed as organism-based. Set-up: dose 36 mg/kg, route oral. The note with it: in vivo, 168 h.
For series [15], the system named is Mus musculus. Description: Toxicity in ICR mouse assessed as change in testicle weight at 18 mg/kg, po qd for 7 days measured every day for 7 days (0.118 +/- 0.004 g). The series is classed as organism-based. Conditions: in vivo, 168 h. Set-up: dose 18 mg/kg, route oral.
Series [16] deals with Mus musculus. The experiment in a line: Toxicity in ICR mouse assessed as change in liver weight at 18 mg/kg, po qd for 7 days measured every day for 7 days (1.772 +/- 0.120 g). The series is classed as organism-based. Set-up: dose 18 mg/kg, route oral. The note with it: in vivo, 168 h.
The subject of series [17] is Mus musculus. Description: Toxicity in ICR mouse assessed as change in liver weight at 54 mg/kg, po qd for 7 days measured every day for 7 days (1.772 +/- 0.120 g). The note with it: in vivo, 168 h. The arrangement: dose 54 mg/kg, route oral. The series is classed as organism-based.
In series [18] the test system is Mus musculus. Description: Toxicity in ICR mouse assessed as change in body weight at 18 to 54 mg/kg, po qd for 7 days measured every day for 7 days. The note with it: in vivo, 168 h. The arrangement: dose 18-54 mg/kg, route oral. The series is classed as organism-based.
The test system of series [19] is Mus musculus. The experiment in a line: Toxicity in ICR mouse assessed as mortality at 18 to 54 mg/kg, po qd for 7 days measured every day for 7 days. The series is classed as organism-based. The arrangement: dose 18-54 mg/kg, route oral. Conditions: in vivo, 168 h.
The species named for series [20] is Rattus norvegicus. The note with it: Wistar, Trachea.
The nature of series [21]: Bronchodilatory activity in guinea pig trachea assessed as inhibition of contraction. The series is classed as functional, tissue-based.
The species named for series [22] is Rattus norvegicus. The experiment in a line: Antagonist activity at rat trachea muscarinic acetylcholine receptor assessed as inhibition of carbachol-induced contraction preincubated for 10 mins followed by agonist challenge.
The species entered for the next series is Cavia porcellus. The experiment in a line: Agonist activity at guinea pig trachea beta adrenergic receptor assessed as relaxation effect in presence of propranolol.

Consider `CN(C)CCOc1ncnc2ccccc12`, for which, in series [1], the EC50 came to 162 µM. For `O=c1cnc2ccccc2n1CCCN1CCCCC1`, in series [1], the EC50 is 43 µM. On the same count and under the same terms, the value for `O=c1ccncn1CCCN1CCCCC1` was 1120 µM. On the same count and under the same terms, the value for `CN1CCCC1CCn1cnc2ccccc2c1=O` (centres undefined) was 104 µM; that for `O=c1[nH]cnc2ccccc12` [QUINAZOLINONE] was 810 µM; that for `O=c1c2ccccc2ncn1CCC[N+]1([O-])CCCCC1` was 601 µM. On the same count and under the same terms, the value for `c1ccc2c(SCCCN3CCCCC3)ccnc2c1` was 58.7 µM; that for `CN(C)CCn1cnc2ccccc2c1=O` was 440 µM. As to `O=c1c2ccccc2ncn1CCN1CCCC1`, the EC50 in series [1] stood at 562 µM. Take `O=c1c2ccccc2ncn1CCCN1CCCCC1`: the EC50 in series [1] was 28.3 µM. In addition, the “Ratio ED50” value in the series with Trachea was 100.

By LD50 is commonly meant the dose expected to kill half of the subjects tested. Low values mean a more toxic substance, high ones a less toxic substance. As to `Cl.O=c1c2ccccc2ncn1CCCN1CCCCC1`, the LD50 in series [2] is 162 mg/kg. For the molecule `O=c1c2ccccc2ncn1CCN1CCCCC1`, the EC50 in series [1] was 178 µM. As to `Cl.c1ccc2c(SCCCN3CCCCC3)ncnc2c1`, the Activity was 0.147 g with Mus musculus [3]; 0.116 g with Mus musculus [4]; 0.134 g with Mus musculus [5]; 1.679 g in the series with Mus musculus [6]; 0.242 g in the series with Mus musculus [7]; 0.24 g in the series on Mus musculus [8]. Besides, the Activity in the series with Mus musculus [9] is reported as 0.146 g; in the series with Mus musculus [10], 0.131 g; in the series on Mus musculus [11], 0.238 g; in the series on Mus musculus [12], 0.115 g; in the series on Mus musculus [13], 0.144 g; in the series with Mus musculus [14] it was 0.154 g. In addition, the Activity with Mus musculus [15] is on record as 0.122 g; with Mus musculus [16], 1.762 g; in the series on Mus musculus [17], 1.64 g. For the same molecule, the median lethal dose (LD50) in [2] amounted to 89.1 mg/kg.

For the molecule `O=c1c2ccccc2[n+]([O-])cn1CCCN1CCCCC1`, in [1], the EC50 turned out to be 45.3 µM. `c1ccc2c(OCCN3CCCCC3)ncnc2c1`: in series [1], the EC50 came to 301 µM. For the molecule `CN1CCCC1CCSc1ncnc2ccccc12` (centres undefined), in series [1], the EC50 worked out at 76.6 µM. Regarding `c1ccc2c(OCCCN3CCCCC3)ncnc2c1`, the EC50 in [1] stood at 132 µM.

Take `Cn1cnc2ccccc2c1=O`: in series [1], the EC50 was determined as 747 µM. Consider `Cn1c(=O)c2nc[nH]c2n(C)c1=O` [THEOPHYLLINE], for which the EC50 in series [1] was found to be 2090 µM. Take `O=c1ccn(CCCN2CCCCC2)c2ccccc12`: the EC50 in series [1] came out at 946 µM. Regarding `c1ccc2c(SCCCN3CCCCC3)ncnc2c1` [listing 1 of 2 here], the Activity entry in the series with Mus musculus [18] and with Mus musculus [19] was “Non-toxic” in each case. The EC50 in series [1] came out at 3.42 µM. For the molecule `c1ccc2c(NCCN3CCCCC3)ncnc2c1`, the EC50 in [1] stood at 191 µM. For `O=C(O)Cn1cnc2ccccc2c1=O`, the ED50 result in the series filed under Rattus norvegicus [20] was “inactive”.

Consider `COc1cc2nc3n(c(=O)c2cc1OC)CCCCC3`, for which the EC50 in series [21] was 73 µM. For the molecule `c1ccc2c(NCCN3CCOCC3)ncnc2c1`, in series [1], the EC50 came out at 258 µM. The same measure, in the same setting: the value for `O=c1ccn(CCCN2CCCCC2)cc1` was 4230 µM. As to `Cl.c1ccc2nc(SCCCN3CCCCC3)cnc2c1`, the outcome in the series filed under Rattus norvegicus [22] and in the series filed under Cavia porcellus was Active. This molecule came in with an LD50 in [2] of 104 mg/kg. The EC50 in series [1] came out at 3.26 µM. On to `O=c1c2ccccc2ncn1CCN1CCOCC1`, for which, in series [1], the EC50 came out at 1900 µM. With `c1ccc2c(SCCCN3CCCCC3)ncnc2c1` [listing 2 of 2 here], the result in the series filed under Rattus norvegicus [22] and in the series listed under Cavia porcellus was Active. As to `CN(C)CCSc1ncnc2ccccc12`, the EC50 in series [1] amounted to 65.3 µM. Same read-out and setting: as for `CN1CCCC1CCNc1ncnc2ccccc12` (centres undefined), the figure is 173 µM; as for `O=c1c2ccccc2nc2n1CC[C@@H]2O`, 2860 µM.
